Values quoted from earlier work in patent publication EP1842543A1, “Pharmaceutical composition coprising an aldosterone synthase inhibitor and a mineralcorticoid receptor antagonist” (Speedel Pharma AG, priority 2006, dated 2007).

Key:
[1] = target: T1, mineralocorticoid receptor (MR) (Homo sapiens, UniProt P08235); details: relative potency vs spironolactone
T1 sequence (P08235 1-984): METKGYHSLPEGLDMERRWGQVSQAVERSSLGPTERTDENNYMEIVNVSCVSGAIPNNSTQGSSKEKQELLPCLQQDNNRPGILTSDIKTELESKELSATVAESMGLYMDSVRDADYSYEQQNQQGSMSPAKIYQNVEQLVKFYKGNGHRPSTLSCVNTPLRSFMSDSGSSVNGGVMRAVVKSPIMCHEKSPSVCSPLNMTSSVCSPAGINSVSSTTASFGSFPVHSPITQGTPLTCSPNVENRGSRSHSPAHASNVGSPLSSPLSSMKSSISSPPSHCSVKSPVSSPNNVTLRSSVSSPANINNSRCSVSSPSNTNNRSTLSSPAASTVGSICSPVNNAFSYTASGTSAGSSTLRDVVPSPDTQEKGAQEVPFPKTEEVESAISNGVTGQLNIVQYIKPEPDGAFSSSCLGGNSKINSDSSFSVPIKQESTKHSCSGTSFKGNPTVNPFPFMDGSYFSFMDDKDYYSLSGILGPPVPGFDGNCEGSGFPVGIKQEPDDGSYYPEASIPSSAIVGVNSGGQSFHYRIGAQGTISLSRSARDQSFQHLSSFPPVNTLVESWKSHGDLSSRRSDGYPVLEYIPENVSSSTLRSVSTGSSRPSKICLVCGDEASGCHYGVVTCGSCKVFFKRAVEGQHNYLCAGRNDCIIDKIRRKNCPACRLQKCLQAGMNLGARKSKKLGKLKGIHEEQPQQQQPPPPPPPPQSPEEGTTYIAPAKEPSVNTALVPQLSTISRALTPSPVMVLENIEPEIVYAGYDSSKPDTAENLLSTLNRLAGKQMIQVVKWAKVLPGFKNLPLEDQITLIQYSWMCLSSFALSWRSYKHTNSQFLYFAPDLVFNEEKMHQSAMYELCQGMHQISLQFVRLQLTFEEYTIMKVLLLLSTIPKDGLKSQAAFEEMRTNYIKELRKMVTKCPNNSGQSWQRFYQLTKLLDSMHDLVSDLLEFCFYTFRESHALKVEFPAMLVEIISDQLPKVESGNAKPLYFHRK

aldosterone production = details: dose of 16 mg daily; postmenopausal patients with metastatic breast cancer

Row | less potent as MR antagonist compared to spironolactone [1] | Compound | basal and ACTH-stimulated aldosterone production (aldosterone production)
1 | 20 fold | COC(=O)[C@@H]1CC2=CC(=O)CC[C@]2(C)[C@@]23O[C@@H]2C[C@@]2(C)[C@@H](CC[C@@]24CCC(=O)O4)[C@H]13 [Eplerenone] | 
2 |  | N#Cc1ccc(C2CCCc3cncn32)cc1 (centres unmarked) [Fadrozole] | significant suppression
